# Assay results: patent US7098209B2, “Pyrazino [1'2':1,6 ] pyrido [3, 4-b] indole-1,4-dione derivatives” (Lilly Icos LLC, priority 2001, dated 2006)
# How the values were obtained:
# [1] = target: recombinant human PDE5 (Homo sapiens, UniProt O76074); experiment: Inhibitory effect on cGMP-PDE (PDE5 IC50 determination); assay type: biochemical; conditions: in vitro
# Description: The compounds of structural formula (I) were tested for an ability to inhibit PDE5. The ability of a compound to inhibit PDE5 activity is related to the IC50 value for the compound, i.e., the concentration of inhibitor required for 50% inhibition of enzyme activity. The IC50 value for compounds of structural formula (I) were determined using recombinant human PDE5.
# Phosphodiesterase activity of the preparations was determined as follows. PDE assays utilizing a charcoal separation technique were performed essentially as described in Loughney et al. (1996). In this assay, PDE activity converts [32P]cAMP or [32P]cGMP to the corresponding [32P]5′-AMP or [32P]5′-GMP in proportion to the amount of PDE activity present. The [32P]5′-AMP or [32P]5′-GMP then was quantitatively converted to free [32P]phosphate and unlabeled adenosine or guanosine by the action of snake venom 5′-nucleotidase. […] The assay was performed at 30° C. in a 100 μL reaction mixture containing (final concentrations) 40 mM Tris HCl (pH 8.0), 1 μM ZnSO4, 5 mM MgCl2, and 0.1 mg/mL bovine serum albumin (BSA). PDE enzyme was present in quantities that yield <30% total hydrolysis of substrate (linear assay conditions). The assay was initiated by addition of substrate ([…] [32P]cAMP or cGMP), and the mixture was incubated for 12 minutes. seventy-five (75) μg of Crotalus atrox venom then was added, and the incubation was continued for 3 minutes (15 minutes total). The reaction was stopped by addition of 200 μL of activated charcoal (25 mg/mL suspension in 0.1 M NaH2PO4, pH 4). After centrifugation (750×g for 3 minutes) to sediment the charcoal, a sample of the supernatant was taken for radioactivity determination in a scintillation counter and the PDE activity was calculated.
# cGMP-PDE activity of compounds of the present invention was measured using a one-step assay adapted from Wells et al., Biochim. Biophys. Acta, 384, 430 (1975). The reaction medium contained 50 mM Tris-HCl, pH 7.5, 5 mM magnesium acetate, 250 μg/ml 5′-Nucleotidase, 1 mM EGTA, and 0.15 μM 8-[H^3]-cGMP. Unless otherwise indicated, the enzyme used was a human recombinant PDE5 (ICOS Corp., Bothell, Wash.).
# Compounds of the invention were dissolved in DMSO finally present at 2% in the assay.
IC50 [1],melting point,Structure (SMILES)
7 nM,145 to 159 °C,"CC(=O)n1c2c(c3ccccc31)C[C@@H]1C(=O)N(C)CC(=O)N1[C@@H]2c1ccc2c(c1)OCO2 [Example 4, (6R,12aR)-7-Acetyl-6-benzo[1,3]dioxol-5-yl-2-methyl-2,3,6,7,12,12a-hexahydropyrazino-[1′,2′:1,6]pyrido[3,4-b]indole-1,4-dione]"
571 nM,,"CN1CC(=O)N2[C@H](c3ccc4c(c3)OCO4)c3c(c4ccccc4n3C)C[C@@H]2C1=O [Example 2, (6R,12aR)-6-Benzo[1,3]dioxol-5-yl-2,7-dimethyl-2,3,6,7,12,12a-hexahydropyrazino[1′,2′:1,6]-pyrido[3,4-b]indole-1,4-dione]"
313 nM,110 to 145 °C,"CN1CC(=O)N2[C@H](c3ccc4c(c3)OCO4)c3c(c4ccccc4n3Cc3ccccc3)C[C@H]2C1=O [Example 3, (6R,12aS)-6-Benzo[1,3]dioxol-5-yl-7-benzyl-2-methyl-2,3,6,7,12,12a-hexahydropyrazino-[1′,2′:1,6]pyrido[3,4-b]indole-1,4-dione]"
124 nM,386 to 387 °C,"CN1CC(=O)N2[C@H](c3ccc4c(c3)OCO4)c3c(c4ccccc4n3C)C[C@H]2C1=O [Example 1, (6R,12aS)-6-Benzo[1,3]dioxol-5-yl-2,7-dimethyl-2,3,6,7,12,12a-hexahydropyrazino[1′,2′:1,6]-pyrido[3,4-b]indole-1,4-dione]"
